Results on two molecules are retold here after patent publication US20060068503A1, “Solid support membranes for ion channel arrays and sensors: application ro rapid screening of pharmacological compounds” (priority 2004, published 2006).

In one experiment the target is T1, Kv1.5 K+ channel (Homo sapiens, UniProt P22460).
T1 construct: expressed in transfected cells; host or cells: Ltk- cells (mouse fibroblasts), stably transfected, expression induced with 2 uM dexamethasone
The experiment can be described thus: Whole cell patch clamp of dexamethasone-induced Kv1.5-transfected Ltk-cells. It is filed as cell-based. Conditions: Ltk-cells overexpressing Kv1.5, whole cell patch clamp. Here is the method: Whole-cell Kv1.5 current recordings are made at room temperature via the gigaseal patch clamp technique using an Axopatch-1D amplifier (Axon Instruments, Foster City, Calif.). Ltk-cells overexpressing Kv1.5 channels are cultured for 24-72 hr, induced to express Kv1.5 channels by 24 hr incubation with 2 μM dexamethasone prior to use for patch clamp studies. Small, spherical cells approximately 10 microns in diameter are used for all patch recordings. Electrodes are made from TW-150F glass capillary tubes (World Precision Instruments, New Haven Conn.) and had resistances of 1.5-3.0 megohms when filled with internal solution containing: 110 Mm KCl, 5 mM K2ATP, 5 mM K4BAPTA, 1 mM MgCl2 and 10 mM HEPES, adjusted to pH 7.2 with KOH. The external solution contained: 130 mM NaCl, 4 mM KCl, 1.8 mM CaCl2 1 mM MgCl2, 10 mM HEPES, 10 mM glucose, adjusted to pH 7.4 with NaOH. Series resistance is compensated following rupture of the seal. Currents are sampled at 1 KHZ and filtered at 500 Hz. Cells are pulsed to +60 mV every 5 sec from a holding potential of −70 mV in 20 mV increments. […] Whole cell patch data are analyzed using Clampfit 8.0 in pCLAMP software (Axon Instruments). IC50 values for compounds are determined by nonlinear regression analysis using GraphPad Prism software (San Diego, Calif.).

Experiment [1] has as its target T2, Kv1.5 K+ channels reconstituted on the SSM (Homo sapiens, UniProt P22460).
T2 construct: expressed in transfected cells; host or cells: Ltk- cells (mouse fibroblasts), stably transfected, expression induced with 2 uM dexamethasone
The experiment can be described thus: Kv1.5 K+ channel current on solid supported membrane (SSM). The class given is biochemical. Conditions: for IC50: SSM-reconstituted channels, -80 mV, n=3, read-out: half-maximal inhibition of Kv1.5 K+ channel current, IC50. Here is the method:
An Ltk-cell line (mouse fibroblast cells) stably overexpressing Kv1.5 K+ channels under control of a dexamethasone promoter is used to prepare plasma membrane vesicles. Expression of Kv1.5 is induced in Ltk-cells by addition of dexamethasone to the medium. The dexamethasone-specific induction of channel expression is totally specific for Kv1.5 channels. Cells are grown in 2 μM dexamethasone for 24 hr prior to use. The cells are centrifuged for 5 min at 1000 rpm and resuspended in 1.0 ml of 20 mM HEPES (pH 7.5), 20 mM NaCl, 100 mM KCl, 1.0 mM EDTA, 0.02% NaN3, 1 mM PMSF, 10 μg/μl leupeptin, and 50 μg/μl aprotinin. After freeze-thawing twice, the membrane fragments/vesicles are collected following centrifugation at 12,000 g for 20 min at 4 °C. Membrane vesicles are also prepared from uninduced Ltk-cells (no dexamethasone incubation) transfected with Kv1.5 K+ channel cDNA and from non-transfected Lkt-cells.
Glass slides are first plated with chromium (5 nm), and then gold (150 nm). The slide is then immersed in ethanol containing 1% octadecanethiol (w/w) for 48 hr to attach alkyl thiol groups. After cleaning the gold plated slide with anhydrous isopropanol, epoxy resin is applied to the surface of the thiol-treated gold. Defects in the epoxy resin coating are used as the experimental chamber after coating the device with a lipid monolayer. […]
Membrane vesicles containing Kv1.5 K+ channels are added to the lipid coated wells containing 125 mM KCl/10 mM K-HEPES pH 7.4. Currents are measured with an HS-2A headstage and Gene Clamp 500 amplifier (Axon Instruments). […] Voltages ranging from −80 mV to +70 mV are applied in 10 mV increments for 200 msec, and electrical currents are recorded. […] Cation selectivity is measured by removing K+ from the medium and replacing it with Na+. Currents are first measured with K+ present. SSMs are then washed with K+-free, Na+-containing medium and currents were measured with Na+ present. Currents with K+ present are re-measured. […]

Broadly, the IC50 is the concentration that inhibits the measured activity by half.

T2 sequence (P22460 whole entry): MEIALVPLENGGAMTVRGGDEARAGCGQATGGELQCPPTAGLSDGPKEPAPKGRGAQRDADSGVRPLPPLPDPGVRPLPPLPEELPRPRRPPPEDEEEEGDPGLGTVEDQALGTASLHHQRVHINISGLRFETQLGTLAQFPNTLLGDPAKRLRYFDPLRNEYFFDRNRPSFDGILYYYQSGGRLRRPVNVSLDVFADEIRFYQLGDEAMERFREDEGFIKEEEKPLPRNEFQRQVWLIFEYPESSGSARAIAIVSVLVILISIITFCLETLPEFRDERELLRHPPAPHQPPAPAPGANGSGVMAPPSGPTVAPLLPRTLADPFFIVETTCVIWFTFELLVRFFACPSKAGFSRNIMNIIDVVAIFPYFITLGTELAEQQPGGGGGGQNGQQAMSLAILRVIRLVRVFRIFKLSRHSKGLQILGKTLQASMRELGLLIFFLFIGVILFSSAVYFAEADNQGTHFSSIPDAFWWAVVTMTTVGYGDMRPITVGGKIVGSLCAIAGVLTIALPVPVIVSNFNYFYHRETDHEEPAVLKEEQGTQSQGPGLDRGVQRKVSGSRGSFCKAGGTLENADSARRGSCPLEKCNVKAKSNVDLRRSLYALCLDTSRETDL
T1 sequence (P22460 whole entry): as above

In the case of `CCc1ccc(S(=O)(=O)N[C@H]2c3cc(NC(=O)c4cccc(OC)c4)ccc3C[C@@H]2O)cc1` [Compound A, N-[(2S,3S)-3-[[(4-ethylphenyl)sulfonyl]amino]-2,3-dihydro-2-hydroxy-1H-inden-5yl]-3-methoxybenzamide], the results for the IC50 (against Kv1.5 K+ channel; in experiment [1]) were 170 nM and 218 nM, respectively. Besides, in experiment [1] (100 nM, holding potentials outside the range of ±20 mV), the “effect on current at varying holding potentials” value was “current decreased”.
For `COc1ccc(CCN2C(=O)CSC2c2ccc(C)c(C)c2)cc1` (centres unmarked) [Compound B, 2-(3,4-dimethyphenyl)-3-[2-(4-methoxyphenyl)ethyl]-thiazolidin-4-one], the results for the IC50 (at Kv1.5 K+ channel; in experiment [1]) were 137 nM and 265 nM, respectively.
